Data as given in US20170029355A1, “LABILE ESTERS OF AGROCHEMICALS FOR CONTROLLED RELEASE AND REDUCTION OF OFF-SITE MOVEMENT” (Monsanto Technology LLC, priority 2011, published 2017).

Columns and labels:
[1] = In vitro dicamba photo-release from photo-labile dicamba esters, tetrahydrofuran solvent (Example 26); format: physicochemical; settings: THF, 0.1 mM ester
Experimental: This Example describes in vitro testing of dicamba photo-release by homogeneous solutions of photo-labile dicamba esters. The esters were dissolved in tetrahydrofuran (THF). Ester concentration was 0.1 mM. 25 ml of the solution was transferred to 22 mm tubes fabricated from graded seal quartz tubing with a 19/22 tapered seal at the top, which was closed with a tapered glass plug and secured with a plastic ring clamp. The solution was entirely below the quartz-to-glass transition, ensuring that the entire volume was exposed to the full spectrum.
The sealed tubes were placed in a Growth Chamber where they were exposed to simulated sunlight for 14 hours per day at 35° C. Dicamba concentrations in the solution were measured during the course of the photolysis.
A sample of the initial solution was reserved in a glass vial away from the light source and analyzed at the conclusion of the study, providing a measurement of the amount of dicamba present without illumination of the photolysis solution (the “dark control”).

velvetleaf [2] = test: Greenhouse post-emergent control of velvetleaf by emulsifiable concentrates (Example 29); format: in vivo; settings: three weeks after treatment
Experimental: The efficacy of some photo-labile ester formulations from Example 28 for post-emergent control of velvetleaf was tested in the greenhouse. All formulations were tested at rates of 140, 280, 420, and 560 g dicamba equivalent per hectare rates and compared to the diglycolamine salt of dicamba (CLARITY®) at the same rates and untreated control plants. The velvetleaf plants were 10-15 cm in height at the time of spraying. Percent control was evaluated three weeks after treatment.

[3] = test system: glyphosate-tolerant, dicamba-sensitive soy plants; test: Humidome volatility injury to dicamba-sensitive plants (Example 31); settings: assessed after three weeks in greenhouse
Text: In this case, the diglycolamine salt of dicamba (CLARITY®) was used for comparison.
Dicamba photo-labile ester formulations from Example 28 were mixed with a commercial glyphosate formulation (ROUNDUP POWERMAX®) and diluted to provide a solution with a 0.5% dicamba equivalent concentrate of the ester (or dicamba diglycolamine salt) and 1.5% concentrate of glyphosate. The mixtures were sprayed at a 10 gallon per acre (93.5 liters per hectare) rate on soil in a plastic container (“humidome”) with a transparent lid. One soil container was sprayed with water as a control. Four glyphosate-tolerant, dicamba-sensitive soy plants between V2 and V3 stage were immediately placed on the sprayed soil and the domes attached to the trays with binder clips. The soy plants were in pots placed directly on the soil but with aluminum foil wrapped around the bottom to prevent uptake of dicamba or dicamba esters through the roots.
The closed containers were held for 24 hours in a growth chamber which was maintained at 35° C. with 40% relative humidity. The plants were then removed and grown in a greenhouse for three weeks. At this time plant injury and growth stage were assessed compared to the control treated with water only.

[4] = In vitro photo-release and hydrolytic release of dicamba in an aqueous medium (Example 35); format: physicochemical; settings: 0.01 mM ester, 35° C.
Experimental: This Example describes the determination of photo-lability and hydrolytic lability of dicamba esters in an aqueous medium. 1 mM solutions of the esters were prepared in acetonitrile (or […] solutions of dicamba diesters). The solutions were then diluted with deionized water to a concentration of 0.01 mM (or 0.005 mM for diesters). The solutions were then transferred to quartz tubes and amber bottles and held in a growth chamber by the procedure of Example 26. A 14-hour day was generally used at a constant temperature of 35° C. Hydrolytic activity was assessed by measuring the increase in dicamba concentration after day zero in the amber (dark) bottles. […] Photolysis manifested itself as increased conversion in the quartz tubes compared to the dark control.

hemp sesbania = test: Field testing of emulsifiable concentrates, post-emergent control (Example 38); format: in vivo
Text: (§1) Four dicamba esters, 1a, 2, 9, and 13a, were formulated as emulsifiable concentrates for field testing. All formulations contained 5% each of a alkylbenzene sulfonate calcium salt (Huntsman NANSA EVM 62/H or Akzo Nobel WITCONATE P-1220 EH) and castor oil ethoxylate (Huntsman SURFONIC CO-54) as the emulsifiers and Aromatic 200 (Exxon) or monochlorobenzene (MCB) as the solvent.
(§2) The esters were compared to the diglycolamine salt of dicamba (CLARITY™) for post-emergent control of three broadleaf weeds: velvetleaf, morning glory, and hemp sesbania. Rates of 280 and 420 g dicamba acid equivalent per hectare were used. […] Evaluations were conducted at 11 or 21 days after treatment. Locations and timing were identical for all formulations tested.

morning glory = test: as above; format: in vivo
Text: as §1, §2

velvetleaf [5] = test: as above; format: in vivo
Text: as §1, §2

Euphorbia species = test: Field testing for post-emergent activity in the Southern Hemisphere (Example 39); format: in vivo; settings: 9 as suspension concentrate, other esters as emulsifiable concentrates
Experimental: The primary weeds were Euphorbia species. Ester 9 was tested as a suspension concentrate using the formulation of Example 33 The other esters were tested as emulsifiable concentrates having the formulations shown in the table below. Akzo Nobel SPONTO EC 334 and SPONTO EC 336 along with SURFONIC CO-54 and […] (Huntsman) were used as emulsifiers and Aromatic 200 (A 200; Exxon) was used as the solvent. […] The diglycolamine salt of dicamba (CLARITYTM) was used as a comparator.

broadleaf weeds = test: Control of broadleaf weeds by ester concentrates (statements of the description); format: in vivo
[6] = 280 and 420 g dicamba acid equivalent per hectare
[7] = 280 g dicamba acid equivalent per hectare, 11 or 21 days after treatment
[8] = 420 g dicamba acid equivalent per hectare, 11 or 21 days after treatment

With `COc1c(Cl)ccc(Cl)c1C(=O)OCc1ccccc1[N+](=O)[O-]` [Ester 1a, 2-Nitrobenzyl Ester of Dicamba] the “Dark Control % dicamba” value ([1]; initial solution kept away from the light source, analyzed at conclusion of study) was 1%, the “Conversion to dicamba, 1 day” value ([1]; simulated sunlight 14 hours per day, 35° C., 1 day) was 22% and the “Conversion to dicamba, 2 days” value ([1]; simulated sunlight 14 hours per day, 35° C., 2 days) was 33%. The “Conversion to dicamba, 3 days” value ([1]; simulated sunlight 14 hours per day, 35° C., 3 days) was 47%, the “Conversion to dicamba, 5 days” value ([1]; simulated sunlight 14 hours per day, 35° C., 5 days) was 66% and the “Conversion to dicamba, 7 days” value ([1]; simulated sunlight 14 hours per day, 35° C., 7 days) was 76%. For the same compound, the “% Control of velvetleaf, 140 g/ha” value (velvetleaf [2]; 140 g dicamba equivalent per hectare) was 46%, the “% Control of velvetleaf, 280 g/ha” value (velvetleaf [2]; 280 g dicamba equivalent per hectare) was 60% and the “% Control of velvetleaf, 420 g/ha” value (velvetleaf [2]; 420 g dicamba equivalent per hectare) was 75%. For the same compound, the “% Control of velvetleaf, 560 g/ha” value (velvetleaf [2]; 560 g dicamba equivalent per hectare) was 73%, the “% Injury” value ([3]; soy plants 24 hours in closed humidome over sprayed soil (0.5% dicamba equivalent + 1.5% glyphosate), 35° C.) was 8% and the “Growth Stage” value ([3]; soy plants 24 hours in closed humidome over sprayed soil) was 8. For the same compound, the “Conversion to Dicamba, Dark, Day 0” value ([4]; amber (dark) bottle, Day 0) was 7%, the “Conversion to Dicamba, Dark, Day 1” value ([4]; amber (dark) bottle, Day 1) was 8% and the “Conversion to Dicamba, Dark, Day 2” value ([4]; amber (dark) bottle, Day 2) was 8%. The “Conversion to Dicamba, Dark, Day 3” value ([4]; amber (dark) bottle, Day 3) was 8%, the “Conversion to Dicamba, Dark, Day 4” value ([4]; amber (dark) bottle, Day 4) was 7% and the “Conversion to Dicamba, Dark, Day 7” value ([4]; amber (dark) bottle, Day 7) was 8%. For the same compound, the “Conversion to dicamba, Dark, Day 10” value ([4]; amber (dark) bottle, Day 10) was 8%, the “Conversion to Dicamba, Dark, Day 14” value ([4]; amber (dark) bottle, Day 14) was 8% and the “Conversion to Dicamba, Dark, Day 21” value ([4]; amber (dark) bottle, Day 21) was 8%. For the same compound, the “Conversion to Dicamba, Dark, Day 28” value ([4]; amber (dark) bottle, Day 28) was 8%, the “Conversion to Dicamba, Light, Day 0” value ([4]; quartz tube, 14-hour day, Day 0) was 7% and the “Conversion to Dicamba, Light, Day 1” value ([4]; quartz tube, 14-hour day, Day 1) was 13%. The “Conversion to Dicamba, Light, Day 2” value ([4]; quartz tube, 14-hour day, Day 2) was 16%, the “Conversion to Dicamba, Light, Day 3” value ([4]; quartz tube, 14-hour day, Day 3) was 18% and the “Conversion to Dicamba, Light, Day 4” value ([4]; quartz tube, 14-hour day, Day 4) was 21%. For the same compound, the “Conversion to Dicamba, Light, Day 7” value ([4]; quartz tube, 14-hour day, Day 7) was 29%, the “Conversion to dicamba, Light, Day 10” value ([4]; quartz tube, 14-hour day, Day 10) was 37% and the “Conversion to Dicamba, Light, Day 14” value ([4]; quartz tube, 14-hour day, Day 14) was 54%. For the same compound, the “Conversion to Dicamba, Light, Day 21” value ([4]; quartz tube, 14-hour day, Day 21) was 75%, the “Conversion to Dicamba, Light, Day 28” value ([4]; quartz tube, 14-hour day, Day 28) was 107% and the “post-emergent control of hemp sesbania compared with the dicamba salt, in words” value (hemp sesbania; [6]) was “equivalent to the dicamba salt”. The “% control, 280 g/ha, Hemp sesbania” value (hemp sesbania; [7]) was 95%, the “% control, 420 g/ha, Hemp sesbania” value (hemp sesbania; [8]) was 98% and the “post-emergent control of morning glory compared with the dicamba salt, in words” value (morning glory; [6]) was “equivalent to the dicamba salt”. For the same compound, the “% control, 280 g/ha, Morning glory” value (morning glory; [7]) was 100%, the “% control, 420 g/ha, Morning glory” value (morning glory; [8]) was 98% and the “post-emergent control of velvetleaf compared with the dicamba salt, in words” value (velvetleaf [5]; [6]) was “equivalent to the dicamba salt”. The “% control, 280 g/ha, Velvetleaf” value (velvetleaf [5]; [7]) was 86%, the “% control, 420 g/ha, Velvetleaf” value (velvetleaf [5]; [8]) was 92% and the “% control, 0.25 lb/ac (0.28 kg/hectare)” value (Euphorbia species; 0.25 lb dicamba a.e. per acre) was 72%. For the same compound, the “% control, 0.50 lb/ac (0.56 kg/hectare)” value (Euphorbia species; 0.50 lb dicamba a.e. per acre) was 78%, the “control of a number of broadleaf weeds in field testing, in words” value (broadleaf weeds; emulsifiable and suspension concentrates, Sesbania macrocarpa, morning glory, velvetleaf, Palmer amaranth, fat hen, sicklepod) was “proven effective” and the “field efficacy for control of broadleaf weeds compared with the diglycolamine salt of dicamba, in words” value (broadleaf weeds; field tests of emulsifiable concentrates) was “slightly more effective than the diglycolamine salt of dicamba”.
